For one test, the system named is HCV genotype 1b replicon. The test is described as follows: HCV replicon assay, genotype 1b replicon EC50. The format is cell-based, Hepatitis C virus. The following applies: Hepatitis C virus, read-out: EC50 [gt-1b]. An outline of the steps:
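Cells harbouring a stable replicon are grown under G418 selection, then plated with test compound in G418-free medium for 24-48 hours. After washing and lysis, RNA or luciferase signal is measured and expressed as percent of DMSO control to give EC50.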
In general terms: Replicon systems follow genome replication, usually without infectious particles.

Test [1] has as its target HCV NS3/4A protease genotype 1b (Hepatitis C virus genotype 1b, UniProt P26663). The test is described as follows: HCV NS3/4A protease time-resolved fluorescence (TRF) assay, Ki against genotype 1b. The class given is biochemical. The method, boiled down:
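NS3/4A enzyme was preincubated 30 min with inhibitor in 50 mM HEPES pH 7.5, 150 mM NaCl, 15% glycerol, 0.15% Triton X-100, 10 mM DTT, 0.1% PEG 8000; 25 nM europium TRF peptide substrate added, 2.5 h at room temperature. Enzyme: 0.2 nM (1b), 0.4 nM (A156T), 0.025 nM (3a). Ki from IC50 via Cheng-Prusoff.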

Where [2] appears, read: IC50 [gt-1b] (nM), NS3/4A genotype 1b, enzyme 0.2 nM.
Where [3] appears, read: IC50 [gt-1b], NS3/4A protease TRF assay, genotype 1b enzyme 0.2 nM.
Setting [4] is: HCV replicon, genotype 1b, HCl salt.
[5] abbreviates: IC50 [gt-1b], NS3/4A protease TRF assay, genotype 1b enzyme 0.2 nM, HCl salt.

Read-outs that look alike come from different tables or passages of the source.

Broadly, the EC50 is the concentration giving half of the maximal effect. A word on the IC50: it is the point on the concentration scale where inhibition reaches its midpoint.

With `Cc1nc2ccccc2c2c1O[C@@]1(C[C@H]3C(=O)N[C@]4(C(=O)NS(=O)(=O)C5(C)CC5)C[C@H]4/C=C\CCCCC[C@H](NC(=O)OCC(C)C)C(=O)N3C1)CC2(F)F` [Example 106, 2-methylpropyl [(2S,6S,12Z,13aS,14aR,16aS)-1′,1′-difluoro-5′-methyl-14a-{[(1-methylcyclopropyl)sulfonyl]carbamoyl}-5,16-dioxo-1,1′,2′,5,6,7,8,9,10,11,13a,14,14a,15,16,16a-hexadecahydrospiro[cyclopropa[e]pyrrolo[1,2-a][1,4]diazacyclopentadecine-2,3′-pyrano[2,3-c]quinolin]-6-yl]carbamate], the EC50 in the test with HCV genotype 1b replicon (genotype 1b replicon) came out at 3.21 nM. This compound also showed a concentration for half-maximal inhibition (IC50) in test [1] (setting [2]) of 0.048 nM.
In the same order, the values of `CC(C)(C)OC(=O)N[C@H]1CCCCC/C=C\[C@@H]2C[C@@]2(C(=O)NS(=O)(=O)C2(C)CC2)NC(=O)[C@@H]2C[C@]3(CCc4c(c(C(F)(F)F)nc5c(Cl)cccc45)O3)CN2C1=O` [Example 31, tert-butyl ((2R,6S,13aS,14aR,16aS,Z)-7′-chloro-14a-(((1-methylcyclopropyl)sulfonyl)carbamoyl)-5,16-dioxo-5′-(trifluoromethyl)-1′,2′,3,5,6,7,8,9,10,11,13a,14,14a,15, 16,16a-hexadecahydro-1H-spiro[cyclopropa[e]pyrrolo[1,2-a][1,4]diazacyclopentadecine-2,3′-pyrano[2,3-c]quinolin]-6-yl)carbamate] are 1.56 nM and 0.02 nM.
With `COCCOc1ccc2nc(C)c3c(c2c1)CC[C@]1(C[C@H]2C(=O)N[C@]4(C(=O)NS(=O)(=O)C5(C)CC5)C[C@H]4/C=C\CCCCC[C@H](NC(=O)OCC(C)(C)C)C(=O)N2C1)O3` [Example 410, 2,2-dimethylpropyl [(2R,6S,12Z,13aS,14aR,16aS)-9′-(2-methoxyethoxy)-5′-methyl-14a-{[(1-methylcyclopropyl)sulfonyl]carbamoyl}-5,16-dioxo-1,1′,2′,5,6,7,8,9,10,11,13a,14,14a,15,16,16a-hexadecahydrospiro[cyclopropa[e]pyrrolo[1,2-a][1,4]diazacyclopentadecine-2,3′-pyrano[2,3-c]quinolin]-6-yl]carbamate], the EC50 in the test on HCV genotype 1b replicon (HCV replicon, genotype 1b) stood at 3.1 nM. Moreover, the IC50 in test [1] (setting [3]) is 0.011 nM.
Regarding `CCc1nc2ccc(OC)cc2c2c1O[C@]1(C[C@H]2F)C[C@H]2C(=O)N[C@]3(C(=O)NS(=O)(=O)C4(C)CC4)C[C@H]3/C=C\CCCCC[C@H](NC(=O)OCC(C)(C)C)C(=O)N2C1` [Example 36, Neopentyl((1′R,2S,6S,13aS,14aR,16aS,Z)-5′-ethyl-1′-fluoro-9′-methoxy-14a-(((1-methylcyclopropyl)sulfonyl)carbamoyl)-5,16-dioxo-1′,2′,3,5,6,7,8,9,10,11,13a,14,14a, 15,16,16a-hexadecahydro-1H-spiro[cyclopropa[e]pyrrolo[1,2-a][1,4]diazacyclopentadecine-2,3′-pyrano[2,3-c]quinolin]-6-yl)carbamate], in the test with HCV genotype 1b replicon (genotype 1b replicon), the EC50 worked out at 1.2 nM. Besides, the half-inhibitory concentration (IC50) in test [1] (setting [2]) worked out at 0.009 nM.
In the case of `CC(C)(C)COC(=O)N[C@H]1CCCCC/C=C\[C@@H]2C[C@@]2(C(=O)NS(=O)(=O)C2(C)CC2)NC(=O)[C@@H]2C[C@]3(CCc4c(c(C(F)(F)F)nc5ccc(OCCN6CCOCC6)cc45)O3)CN2C1=O` [Example 472, 2,2-dimethylpropyl [(2R,6S,12Z,13aS,14aR,16aS)-14a-{[(1-methylcyclopropyl)sulfonyl]carbamoyl}-9′-[2-(morpholin-4-yl)ethoxy]-5,16-dioxo-5′-(trifluoromethyl)-1,1′,2′,5,6,7,8,9,10,11,13a,14,14a,15,16,16a-hexadecahydrospiro[cyclopropa[e]pyrrolo[1,2-a][1,4]diazacyclopentadecine-2,3′-pyrano[2,3-c]quinolin]-6-yl]carbamate], the EC50 in the test on HCV genotype 1b replicon (setting [4]) amounted to 3.43 nM. Besides, the IC50 in test [1] (setting [5]) was 0.02 nM.
With `Cc1nc2ccc(C(F)(F)F)cc2c2c1O[C@]1(CC2)C[C@H]2C(=O)N[C@]3(C(=O)NS(=O)(=O)C4(C)CC4)C[C@H]3/C=C\CCCCC[C@H](NC(=O)OC3CCCC3)C(=O)N2C1` [Example 252, cyclopentyl [(2R,6S,12Z,13aS,14aR,16aS)-5′-methyl-14a-{[(1-methylcyclopropyl)sulfonyl]carbamoyl}-5,16-dioxo-9′-(trifluoromethyl)-1,1′,2′,5,6,7,8,9,10,11,13a,14,14a,15,16,16a-hexadecahydrospiro[cyclopropa[e]pyrrolo[1,2-a][1,4]diazacyclopentadecine-2,3′-pyrano[2,3-c]quinolin]-6-yl]carbamate], the concentration for a half-maximal effect (EC50) in the test with HCV genotype 1b replicon (genotype 1b replicon) turned out to be 44.4 nM. The compound also returned a half-maximal inhibitory concentration (IC50) in test [1] (setting [2]) of 0.01 nM.
The matching figures for `CC(C)COC(=O)N[C@H]1CCCCC/C=C\[C@@H]2C[C@@]2(C(=O)NS(=O)(=O)C2(C)CC2)NC(=O)[C@@H]2C[C@]3(CCc4c(c(C5CC5)nc5ccc(F)cc45)O3)CN2C1=O` [Example 144, 2-methylpropyl [(2R,6S,12Z,13aS,14aR,16aS)-5′-cyclopropyl-9′-fluoro-14a-{[(1-methylcyclopropyl)sulfonyl]carbamoyl}-5,16-dioxo-1,1′,2′,5,6,7,8,9,10,11,13a,14,14a,15,16,16a-hexadecahydrospiro[cyclopropa[e]pyrrolo[1,2-a][1,4]diazacyclopentadecine-2,3′-pyrano[2,3-c]quinolin]-6-yl]carbamate]: 1.02 nM and 0.007 nM.
As to `COCC1(S(=O)(=O)NC(=O)[C@@]23C[C@H]2/C=C\CCCCC[C@H](NC(=O)OC(C)(C)C)C(=O)N2C[C@@]4(CCc5c(c(C(F)F)nc6ccc(OC)cc56)O4)C[C@H]2C(=O)N3)CC1` [Example 476, tert-butyl [(2R,6S,12Z,13aS,14aR,16aS)-5′-(difluoromethyl)-9′-methoxy-14a-({[1-(methoxymethyl)cyclopropyl]sulfonyl}carbamoyl)-5,16-dioxo-1,1′,2′,5,6,7,8,9,10,11,13a,14,14a,15,16,16a-hexadecahydrospiro[cyclopropa[e]pyrrolo[1,2-a][1,4]diazacyclopentadecine-2,3′-pyrano[2,3-c]quinolin]-6-yl]carbamate], in the test on HCV genotype 1b replicon (HCV replicon, genotype 1b), the EC50 was 4.35 nM. The same compound had an IC50 in test [1] (setting [3]) of 0.012 nM.
For `CCc1nc2ccc(OCCN3CCOCC3)cc2c2c1O[C@]1(CC2)C[C@H]2C(=O)N[C@]3(C(=O)NS(=O)(=O)C4(C)CC4)C[C@H]3/C=C\CCCCC[C@H](NC(=O)O[C@@H](C)C(C)C)C(=O)N2C1` [Example 519, (2S)-3-methylbutan-2-yl {(2R,6S,12Z,13aS,14aR,16aS)-5′-ethyl-14a-{[(1-methylcyclopropyl)sulfonyl]carbamoyl}-9′-[2-(morpholin-4-yl)ethoxy]-5,16-dioxo-1,1′,2′,5,6,7,8,9,10,11,13a,14,14a,15,16,16a-hexadecahydrospiro[cyclopropa[e]pyrrolo[1,2-a][1,4]diazacyclopentadecine-2,3′-pyrano[2,3-c]quinolin]-6-yl}carbamate], in the test on HCV genotype 1b replicon (setting [4]), the EC50 was 0.541 nM. For the same compound, the half-maximal inhibitory concentration (IC50) in test [1] (setting [5]) is 0.009 nM.
In the case of `Cc1nc2ccccc2c2c1O[C@]1(CC2)C[C@H]2C(=O)N[C@]3(C(=O)NS(=O)(=O)C4(C)CC4)C[C@H]3/C=C\CCCCC[C@H](NC(=O)OC3C[C@H]4C=C[C@@H]3C4)C(=O)N2C1` (stereo partly drawn) [Example 257, (1S,4S)-bicyclo[2.2.1]hept-5-en-2-yl [(2R,6S,12Z,13aS,14aR,16aS)-5′-methyl-14a-{[(1-methylcyclopropyl)sulfonyl]carbamoyl}-5,16-dioxo-1,1′,2′,5,6,7,8,9,10,11,13a,14,14a,15,16,16a-hexadecahydrospiro[cyclopropa[e]pyrrolo[1,2-a][1,4]diazacyclopentadecine-2,3′-pyrano[2,3-c]quinolin]-6-yl]carbamate], the EC50 with HCV genotype 1b replicon (genotype 1b replicon) stood at 3.25 nM. Also, half-maximal inhibition in test [1] (setting [2]) (IC50) was put at 0.018 nM.
In the same order, the values of `Cc1nc2cc(Cl)ccc2c2c1O[C@]1(CC2)C[C@H]2C(=O)N[C@]3(C(=O)NS(=O)(=O)C4(C)CC4)C[C@H]3/C=C\CCCCC[C@H](NC(=O)OC(C)C)C(=O)N2C1` [Example 237, propan-2-yl [(2R,6S,12Z,13aS,14aR,16aS)-8′-chloro-5′-methyl-14a-{[(1-methylcyclopropyl)sulfonyl]carbamoyl}-5,16-dioxo-1,1′,2′,5,6,7,8,9,10,11,13a,14,14a,15,16,16a-hexadecahydrospiro[cyclopropa[e]pyrrolo[1,2-a][1,4]diazacyclopentadecine-2,3′-pyrano[2,3-c]quinolin]-6-yl]carbamate] are 5.72 nM and 0.04 nM.
Turning to `COCCOC(=O)N[C@H]1CCCCC/C=C\[C@@H]2C[C@@]2(C(=O)NS(=O)(=O)C2(C)CC2)NC(=O)[C@@H]2C[C@]3(CCc4c(c(C)nc5ccccc45)O3)CN2C1=O` [Example 128, 2-methoxyethyl [(2R,6S,12Z,13aS,14aR,16aS)-5′-methyl-14a-{[(1-methylcyclopropyl)sulfonyl]carbamoyl}-5,16-dioxo-1,1′,2′,5,6,7,8,9,10,11,13a,14,14a,15,16,16a-hexadecahydrospiro[cyclopropa[e]pyrrolo[1,2-a][1,4]diazacyclopentadecine-2,3′-pyrano[2,3-c]quinolin]-6-yl]carbamate], the concentration giving a half-maximal response (EC50) in the test on HCV genotype 1b replicon (genotype 1b replicon) was determined as 2.01 nM. This compound also had a 50% inhibitory concentration (IC50) in test [1] (setting [2]) of 0.044 nM.

The record behind these values is patent publication US8987195B2 (priority 2012, dated 2015).
